Test results: article PMC8642396, “Crystal structure of human METTL6, the m^3C methyltransferase” (Communications Biology, 2021)
Changes are numbered by the printed parent chain. pKd: −log10 of the molar value.

Assays:
Type in all cases: binding
hMETTL6 [1] = target: T1, hMETTL6 (Homo sapiens, UniProt Q8TCB7); assay: X-ray crystal structure, […] Å; conditions: protein mixed with 2 mM SAH; active site; ammonium sulfate, pH 5.6
T1 construct: gene METTL6
T1 sequence (Q8TCB7 1-284): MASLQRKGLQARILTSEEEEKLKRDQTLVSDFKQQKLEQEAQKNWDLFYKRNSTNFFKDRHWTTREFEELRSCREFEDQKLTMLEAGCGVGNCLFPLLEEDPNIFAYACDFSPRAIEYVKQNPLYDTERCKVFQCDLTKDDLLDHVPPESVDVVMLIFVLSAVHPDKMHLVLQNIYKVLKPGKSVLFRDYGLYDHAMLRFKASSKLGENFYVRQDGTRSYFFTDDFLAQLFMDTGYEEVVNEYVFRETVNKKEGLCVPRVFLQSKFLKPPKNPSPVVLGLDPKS

hMETTL6 [2] = target: T2, hMETTL6 (Homo sapiens, UniProt Q8TCB7, C93S); assay: isothermal titration calorimetry
T2 construct: gene METTL6
T2 sequence (Q8TCB7 1-284 C93S): T1 sequence (Q8TCB7 1-284) with C93S

hMETTL6 [3] = target: T3, hMETTL6 (Homo sapiens, UniProt Q8TCB7, D110A); assay: isothermal titration calorimetry; conditions: pH 8.0, 150 mM NaCl, 1 mM DTT, 25 °C; mutant partly aggregated, structural integrity disrupted
T3 construct: gene METTL6
T3 sequence (Q8TCB7 1-284 D110A): T1 sequence (Q8TCB7 1-284) with D110A

hMETTL6 [4] = target: T1, hMETTL6; assay: isothermal titration calorimetry
hMETTL6 [5] = target: T4, hMETTL6 (Homo sapiens, UniProt Q8TCB7, F111L); assay: isothermal titration calorimetry
T4 construct: gene METTL6
T4 sequence (Q8TCB7 1-284 F111L): T1 sequence (Q8TCB7 1-284) with F111L

hMETTL6 [6] = target: T5, hMETTL6 (Homo sapiens, UniProt Q8TCB7, E85Q); assay: isothermal titration calorimetry
T5 construct: gene METTL6
T5 sequence (Q8TCB7 1-284 E85Q): T1 sequence (Q8TCB7 1-284) with E85Q

hMETTL6 [7] = target: T6, hMETTL6 (Homo sapiens, UniProt Q8TCB7, H61N); assay: isothermal titration calorimetry
T6 construct: gene METTL6
T6 sequence (Q8TCB7 1-284 H61N): T1 sequence (Q8TCB7 1-284) with H61N

hMETTL6 [8] = target: T7, hMETTL6 (Homo sapiens, UniProt Q8TCB7, Y49F); assay: isothermal titration calorimetry
T7 construct: gene METTL6
T7 sequence (Q8TCB7 1-284 Y49F): T1 sequence (Q8TCB7 1-284) with Y49F

Row | pKd (hMETTL6 [2]) | pKd (hMETTL6 [4]) | pKd (hMETTL6 [5]) | pKd (hMETTL6 [6]) | pKd (hMETTL6 [7]) | pKd (hMETTL6 [8]) | Compound | X-ray crystal structure, 1.9 Å (hMETTL6 [1]) | KD (hMETTL6 [3])
1 |  |  |  |  |  |  | Nc1ncnc2c1ncn2[C@@H]1O[C@H](CSCC[C@H](N)C(=O)O)[C@@H](O)[C@H]1O [SAH] | we solved the structure of hMETTL6 in complex with SAH at a high resolution | 
2 | 5.65 | ~5.57 | 5.09 | 4.06 | 5.51 | 5.02 | C[S+](CC[C@H](N)C(=O)O)C[C@H]1O[C@@H](n2cnc3c(N)ncnc32)[C@H](O)[C@@H]1O (some centres unmarked) [SAM] |  | the D110A mutation almost eliminated the association capacity of the enzyme
